Reference: ChEMBL document CHEMBL5214969, “Synthesis and evaluation of 2,9-disubstituted-1,10-phenanthroline derivatives as G-quadruplex binders” (Bioorg Med Chem, 2022)
Values belong to the compound of their own block, whether it stands above or below them. Activity calls are given as the source filed them. The calls are words filed in the database; no cut-off is given here.

What was measured:
Quadruplex DNA [1] = experiment: Binding affinity to human G-quadruplex telomeric DNA F21T (5'-duplex FAM-GGGTTAGGGTTAGGGTTAGGG-TAM-3') assessed as stabilization by measuring change in melting temperature at 5 uM by FRET melting assay; format: nucleic-acid assay
Quadruplex DNA [2] = experiment: Binding affinity to human G-quadruplex telomeric DNA F21CTAT (5'-duplex FAM-GGGCTAGGGCTAGGGCTAGGG-TAM-3') assessed as stabilization by measuring change in melting temperature at 5 uM by FRET melting assay; format: nucleic-acid assay
Quadruplex DNA [3] = experiment: Binding affinity to human G-quadruplex telomeric DNA F25CebT (5'-duplex FAM-AGGGTGGGTGTAAGTGTGGGTGGGT-TAM-3') assessed as stabilization by measuring change in melting temperature at 5 uM by FRET melting assay; format: nucleic-acid assay
Quadruplex DNA [4] = experiment: Binding affinity to G-quadruplex telomeric DNA 22AG (5'-duplex AGGGTTAGGGTTAGGGTTAGGG-3') (unknown origin) assessed as stabilization by measuring change in melting temperature at 0.5 M by circular dichroism (CD) spectroscopy; format: nucleic-acid assay
Quadruplex DNA [5] = experiment: Binding affinity to G-quadruplex telomeric DNA 22AG (5'-duplex AGGGTTAGGGTTAGGGTTAGGG-3') (unknown origin) assessed as stabilization by measuring change in melting temperature at 1 M by circular dichroism (CD) spectroscopy; format: nucleic-acid assay
Quadruplex DNA [6] = experiment: Binding affinity to G-quadruplex telomeric DNA 22AG (5'-duplex AGGGTTAGGGTTAGGGTTAGGG-3') (unknown origin) assessed as stabilization by measuring change in melting temperature at 3 M by circular dichroism (CD) spectroscopy; format: nucleic-acid assay
Quadruplex DNA [7] = experiment: Binding affinity to G-quadruplex telomeric DNA 22AG (5'-duplex AGGGTTAGGGTTAGGGTTAGGG-3') (unknown origin) assessed as stabilization by measuring change in melting temperature at 5 M by circular dichroism (CD) spectroscopy; format: nucleic-acid assay
Quadruplex DNA [8] = experiment: Binding affinity to G-quadruplex telomeric DNA 22CTA (5'-duplex AGGGCTAGGGCTAGGGCTAGGG-3') (unknown origin) assessed as stabilization by measuring change in melting temperature at 0.5 M by circular dichroism (CD) spectroscopy; format: nucleic-acid assay
Quadruplex DNA [9] = experiment: Binding affinity to G-quadruplex telomeric DNA 22CTA (5'-duplex AGGGCTAGGGCTAGGGCTAGGG-3') (unknown origin) assessed as stabilization by measuring change in melting temperature at 1 M by circular dichroism (CD) spectroscopy; format: nucleic-acid assay
Quadruplex DNA [10] = experiment: Binding affinity to G-quadruplex telomeric DNA 22CTA (5'-duplex AGGGCTAGGGCTAGGGCTAGGG-3') (unknown origin) assessed as stabilization by measuring change in melting temperature at 3 M by circular dichroism (CD) spectroscopy; format: nucleic-acid assay
Quadruplex DNA [11] = experiment: Binding affinity to G-quadruplex telomeric DNA 22CTA (5'-duplex AGGGCTAGGGCTAGGGCTAGGG-3') (unknown origin) assessed as stabilization by measuring change in melting temperature at 5 M by circular dichroism (CD) spectroscopy; format: nucleic-acid assay
Quadruplex DNA [12] = experiment: Binding affinity to G-quadruplex telomeric DNA 26ceb (5'-duplex AAGGGTGGGTGTAAGTGTGGGTGGGT-3') (unknown origin) assessed as stabilization by measuring change in melting temperature at 0.5 M by circular dichroism (CD) spectroscopy; format: nucleic-acid assay
Quadruplex DNA [13] = experiment: Binding affinity to G-quadruplex telomeric DNA 26ceb (5'-duplex AAGGGTGGGTGTAAGTGTGGGTGGGT-3') (unknown origin) assessed as stabilization by measuring change in melting temperature at 1 M by circular dichroism (CD) spectroscopy; format: nucleic-acid assay
Quadruplex DNA [14] = experiment: Binding affinity to G-quadruplex telomeric DNA 26ceb (5'-duplex AAGGGTGGGTGTAAGTGTGGGTGGGT-3') (unknown origin) assessed as stabilization by measuring change in melting temperature at 3 M by circular dichroism (CD) spectroscopy; format: nucleic-acid assay
Quadruplex DNA [15] = experiment: Binding affinity to G-quadruplex telomeric DNA 26ceb (5'-duplex AAGGGTGGGTGTAAGTGTGGGTGGGT-3') (unknown origin) assessed as stabilization by measuring change in melting temperature at 5 M by circular dichroism (CD) spectroscopy; format: nucleic-acid assay
NHDF = experiment: (§1) Cytotoxicity against human NHDF cells assessed as cell viability at 10 uM after 48 hrs by MTT assay; format: toxicity, cell-based; conditions: nhdf, 48 h, 10 µM
A549 = experiment: Antiproliferative activity against human A549 cells assessed as cell viability at 10 uM after 48 hrs by MTT assay; format: functional; conditions: for viability at 10 µM: read-out: Activity
NCI-H1299 = experiment: Antiproliferative activity against human NCI-H1299 cells assessed as cell viability at 10 uM after 48 hrs by MTT assay; format: functional
[16] = as §1; format: toxicity, cell-based; conditions: NHDF cells, read-out: Activity
Quadruplex DNA [17] = experiment: Binding affinity to G-quadruplex telomeric DNA FdxT (5'-duplex FAM-TATAGCTAT-PEG-TATAGCTATA-TAM-3') assessed as stabilization by measuring change in melting temperature at 5 uM by FRET melting assay; format: nucleic-acid assay

ΔTm (Quadruplex DNA [1]): 9.2 °C
ΔTm (Quadruplex DNA [2]): 4.1 °C
ΔTm (Quadruplex DNA [3]): 3.8 °C
ΔTm (Quadruplex DNA [4]): 0.5 °C
ΔTm (Quadruplex DNA [5]): 0.9 °C
ΔTm (Quadruplex DNA [6]): 1.5 °C
ΔTm (Quadruplex DNA [7]): 1.1 °C
ΔTm (Quadruplex DNA [8]): 0.9 °C
ΔTm (Quadruplex DNA [9]): 1.8 °C
ΔTm (Quadruplex DNA [10]): 2.6 °C
ΔTm (Quadruplex DNA [11]): 3.1 °C
ΔTm (Quadruplex DNA [12]): 1.1 °C
ΔTm (Quadruplex DNA [13]): 2.3 °C
ΔTm (Quadruplex DNA [14]): 5.9 °C
ΔTm (Quadruplex DNA [15]): 8.1 °C
SMILES: COc1ccc(NCc2ccc3ccc4ccc(CNc5ccc(OC)cc5)nc4c3n2)cc1
Activity (NHDF): Toxic

ΔTm (Quadruplex DNA [1]): 1 °C
ΔTm (Quadruplex DNA [3]): 2.6 °C
SMILES: O=C(N/N=C/c1c(O)ccc2ccccc12)c1ccc2ccc3ccc(C(=O)N/N=C/c4c(O)ccc5ccccc45)nc3c2n1

ΔTm (Quadruplex DNA [1]): 5.3 °C
SMILES: CCCCCCNCc1ccc2ccc3ccc(CNCCCCCC)nc3c2n1
viability at 10 µM (A549): 27.4%
viability at 10 µM (NCI-H1299; read-out: Activity): 42.9%
viability at 48 h, 10 µM [16]: 22.4%

ΔTm (Quadruplex DNA [1]): 1.2 °C
ΔTm (Quadruplex DNA [3]): 0.9 °C
SMILES: CC(C)(C)OC(=O)NCCNCc1ccc2ccc3ccc(CNCCNC(=O)OC(C)(C)C)nc3c2n1

ΔTm (Quadruplex DNA [1]): 0.8 °C
ΔTm (Quadruplex DNA [3]): 0.7 °C
SMILES: COc1ccc(/N=C/c2ccc3ccc4ccc(/C=N/c5ccc(OC)cc5)nc4c3n2)cc1

ΔTm (Quadruplex DNA [1]): 1.2 °C
ΔTm (Quadruplex DNA [3]): 0.4 °C
SMILES: OCCNCc1ccc2ccc3ccc(CNCCO)nc3c2n1

ΔTm (Quadruplex DNA [1]): > 30 °C
ΔTm (Quadruplex DNA [2]): > 30 °C
ΔTm (Quadruplex DNA [3]): > 30 °C
ΔTm (Quadruplex DNA [17]): 0.6 °C
SMILES: C[n+]1cc(NC(=O)c2ccc3ccc4ccc(C(=O)Nc5cc6ccccc6[n+](C)c5)nc4c3n2)cc2ccccc21

ΔTm (Quadruplex DNA [1]): 7.2 °C
ΔTm (Quadruplex DNA [2]): 2.9 °C
ΔTm (Quadruplex DNA [3]): 1.8 °C
ΔTm (Quadruplex DNA [4]): 0.5 °C
ΔTm (Quadruplex DNA [5]): 0.3 °C
ΔTm (Quadruplex DNA [6]): 2.5 °C
ΔTm (Quadruplex DNA [7]): 1.4 °C
ΔTm (Quadruplex DNA [8]): 0.4 °C
ΔTm (Quadruplex DNA [9]): 1.3 °C
ΔTm (Quadruplex DNA [10]): 2.9 °C
ΔTm (Quadruplex DNA [11]): 4.3 °C
ΔTm (Quadruplex DNA [12]): 3.4 °C
ΔTm (Quadruplex DNA [13]): 4.6 °C
ΔTm (Quadruplex DNA [14]): 9.7 °C
ΔTm (Quadruplex DNA [15]): 11.7 °C
SMILES: NCCNC(=O)c1ccc2ccc3ccc(C(=O)NCCN)nc3c2n1
viability at 10 µM (A549): 24.5%
Activity (NCI-H1299): Active
viability at 48 h, 10 µM [16]: 75.1%

ΔTm (Quadruplex DNA [1]): 1.5 °C
ΔTm (Quadruplex DNA [3]): 1.2 °C
SMILES: CC/N=C/c1ccc2ccc3ccc(/C=N/CC)nc3c2n1

ΔTm (Quadruplex DNA [1]): 1.8 °C
ΔTm (Quadruplex DNA [3]): 1.2 °C
SMILES: NNC(=O)c1ccc2ccc3ccc(C(=O)NN)nc3c2n1
Activity (A549): Active
Activity (NCI-H1299): Active

More lines, now with the values behind:

SMILES: O=C1NCCOCCOCCNC(=O)c2ccc3ccc4ccc1nc4c3n2
ΔTm (Quadruplex DNA [1]): 0.5 °C
ΔTm (Quadruplex DNA [3]): 0.4 °C
Activity (A549): Active
Activity (NCI-H1299): Active

SMILES: NCCNCc1ccc2ccc3ccc(CNCCN)nc3c2n1.O=C(O)C(F)(F)F.O=C(O)C(F)(F)F.O=C(O)C(F)(F)F.O=C(O)C(F)(F)F
ΔTm (Quadruplex DNA [1]): 12 °C
ΔTm (Quadruplex DNA [2]): 5.2 °C
ΔTm (Quadruplex DNA [3]): 7.8 °C
ΔTm (Quadruplex DNA [4]): 0.7 °C
ΔTm (Quadruplex DNA [5]): 2.1 °C
ΔTm (Quadruplex DNA [6]): 3.4 °C
ΔTm (Quadruplex DNA [7]): 3.5 °C
ΔTm (Quadruplex DNA [8]): 0.6 °C
ΔTm (Quadruplex DNA [9]): 1.3 °C
ΔTm (Quadruplex DNA [10]): 1.9 °C
ΔTm (Quadruplex DNA [11]): 2.1 °C
ΔTm (Quadruplex DNA [12]): 0.9 °C
ΔTm (Quadruplex DNA [13]): 2.1 °C
ΔTm (Quadruplex DNA [14]): 5.4 °C
ΔTm (Quadruplex DNA [15]): 7.6 °C
Activity (NHDF): Toxic

SMILES: O=C1NCCNCCNC(=O)c2ccc3ccc4ccc1nc4c3n2
ΔTm (Quadruplex DNA [1]): 0.4 °C
ΔTm (Quadruplex DNA [3]): 1.7 °C
Activity (A549): Active
Activity (NCI-H1299): Active

SMILES: OCC/N=C/c1ccc2ccc3ccc(/C=N/CCO)nc3c2n1
ΔTm (Quadruplex DNA [1]): 1.1 °C
ΔTm (Quadruplex DNA [3]): 0.9 °C

SMILES: CC(C)(C)OC(=O)NCC/N=C/c1ccc2ccc3ccc(/C=N/CCNC(=O)OC(C)(C)C)nc3c2n1
ΔTm (Quadruplex DNA [1]): 0.6 °C
ΔTm (Quadruplex DNA [3]): 0.6 °C

SMILES: CC(C)(C)OC(=O)NCCNC(=O)c1ccc2ccc3ccc(C(=O)NCCNC(=O)OC(C)(C)C)nc3c2n1
ΔTm (Quadruplex DNA [1]): 0.7 °C
ΔTm (Quadruplex DNA [3]): 0.8 °C
Activity (A549): Active
Activity (NCI-H1299): Active

SMILES: CCCCCC/N=C/c1ccc2ccc3ccc(/C=N/CCCCCC)nc3c2n1
ΔTm (Quadruplex DNA [1]): 1.1 °C
ΔTm (Quadruplex DNA [3]): 0.7 °C
Activity (NHDF): Non-Toxic
